Measured values: BigSolDB 2.1

A solubility (mole fraction) (in transcutol, 298.15 K) of 0.0267, a solubility (mole fraction) (in transcutol, 303.15 K) of 0.0288 and a solubility (mole fraction) (in transcutol, 308.15 K) of 0.0318 were found for `C=CC(=O)N1CCC[C@@H](n2nc(-c3ccc(Oc4ccccc4)cc3)c3c(N)ncnc32)C1` in this work. It also gave a solubility (mole fraction) (in transcutol, 313.15 K) of 0.0341, a solubility (mole fraction) (in transcutol, 323.15 K) of 0.0392 and a solubility (mole fraction) (in water, 298.15 K) of 1.43e-07. It also gave a solubility (mole fraction) (in water, 303.15 K) of 2.21e-07, a solubility (mole fraction) (in water, 308.15 K) of 3.11e-07 and a solubility (mole fraction) (in water, 313.15 K) of 4.13e-07. It also gave a solubility (mole fraction) (in water, 323.15 K) of 7.69e-07.
